{"source": "ChEMBL document CHEMBL1121572", "about": "“Synthetic and preliminary hemodynamic and whole animal toxicity studies on (R,S)-, (R)-, and (S)-2-methyl-3-(2,4,5-trihydroxyphenyl)alanine” (J Med Chem, 1980)", "assay": "Compound was tested for toxicity (lethal dose) in male white swiss mice", "assay_type": "organism-based", "conditions": "mouse, in vivo"}
{"molecule": "CC(N)(Cc1ccc(O)c(O)c1)C(=O)O", "note": "(racemic) [METHYLDOPA (RACEMIC)]", "values": [{"measurement": "LD50", "value": 1320, "unit": "mg/kg"}]}
{"molecule": "CC(N)Cc1cc(O)c(O)cc1O", "note": "(racemic)", "values": [{"measurement": "LD50", "value": 320, "unit": "mg/kg"}]}
{"molecule": "CC(N)(Cc1cc(O)c(O)cc1O)C(=O)O", "note": "(racemic)", "values": [{"measurement": "LD50", "value": 289, "unit": "mg/kg"}]}
{"molecule": "C[C@](N)(Cc1ccc(O)c(O)c1)C(=O)O", "note": "[METHYLDOPA]", "values": [{"measurement": "LD50", "value": 1890, "unit": "mg/kg"}]}
{"molecule": "CC(N)Cc1ccc(O)c(O)c1", "note": "(racemic)", "values": [{"measurement": "LD50", "value": 576, "unit": "mg/kg"}]}
